Data taken from article PMC3292407 (The Journal of Neuroscience, 2012).
“And” between values parts separate entries of the source, which are not always exact repeats. Identical values can stand only once. Like-named read-outs stand apart in the source and are kept apart here.

Tests used:
[1] = test system: GABAARs; format: cell-based, rat; settings: for Itonic (pA) / mIPSC amplitude (pA) / mIPSC area (fC) / Decay time / Frequency (HZ) / Rise time: DGCs of naive rats; for Decay time / Frequency (HZ) / Rise time: mIPSCs
[2] = Plasma [EtOH] assay of two-bottle choice; format: in vivo, rat; settings: E+D/water-group vs E/water-group, end of the 6th week
[3] = test system: rats; experiment: Loss of Righting Reflex
[4] = test system: rats; experiment: Elevated-plus maze; format: in vivo, rat
[5] = test system: GABAARs; format: in vivo, rat; settings: for Decay time / Frequency (HZ) / Rise time: baseline mIPSCs; for Itonic (pA) / mIPSC amplitude (pA) / mIPSC area (fC): baseline
[6] = test system: GABAAR α4 subunit; experiment: Western blot of total GABAAR α4 subunit in hippocampus 48 hr after withdrawal; format: in vivo, rat
[7] = test system: rats; format: in vivo, rat; settings: for EtOH consumption: 20% EtOH/water (E/water-group)
[8] = test system: GABAARs; format: cell-based, rat
[9] = Plasma EtOH concentrations; format: in vivo, rat
[10] = test system: GABAAR α4 subunit; format: cell-based, rat
[11] = test system: rats; experiment: Pentylenetetrazol; format: in vivo, rat; settings: PTZ 42 mg/kg
[12] = DHM 3 μM in presence of EtOH 60 mM
[13] = 48 hr withdrawal after EtOH 3 g/kg + DHM 1 mg/kg i.p. (E+D/W)
[14] = DHM 0.3, 0.5, 1, 10 mg/kg co-injected i.p. with EtOH 3 g/kg
[15] = 48 hr after DHM 1 mg/kg i.p. alone (D/W)
[16] = D/W: 48 hr after DHM 1 mg/kg gavage
[17] = E+D/W: 48 hr after EtOH 5 g/kg + DHM 1 mg/kg gavage
[18] = DHM 1 μM, cultured hippocampal neurons DIV13-14
[19] = bath EtOH 60 mM, DGCs, naive rats
[20] = E/W: 48 hr after EtOH 5 g/kg gavage
[21] = bath EtOH 60 mM, DGCs of V/W-group rats

O=C1c2c(O)cc(O)cc2O[C@H](c2cc(O)c(O)c(O)c2)[C@H]1O [DHM, (2R,3R)-3,5,7-trihydroxy-2-(3,4,5-trihydroxyphenyl)-2,3-dihydrochromen-4-one]
Itonic (pA) ([1]; DHM 0.1 μM): 27.6 ± 1.4 pA | mIPSC amplitude (pA) ([1]; DHM 0.1 μM): 30.9 ± 2.9 pA | mIPSC area (fC) ([1]; DHM 0.1 μM): 637.1 ± 19.8 fC | Decay time ([1]; DHM 0.1 μM): 7.5 ± 0.5 ms | Frequency (HZ) ([1]; DHM 0.1 μM): 14.0 ± 0.6 HZ | Rise time ([1]; DHM 0.1 μM): 2.0 ± 0.2 ms | Itonic (pA) ([1]; DHM 1 μM): 44.0 ± 4.1 pA | mIPSC amplitude (pA) ([1]; DHM 1 μM): 32.7 ± 2.6 pA | mIPSC area (fC) ([1]; DHM 1 μM): 715.7 ± 26.2 fC | Decay time ([1]; DHM 1 μM): 8.6 ± 0.5 ms | Frequency (HZ) ([1]; DHM 1 μM): 15.0 ± 0.6 HZ | Rise time ([1]; DHM 1 μM): 2.1 ± 0.2 ms | EtOH-potentiated Itonic [1, 12]: 21.0 ± 0.9 pA | EtOH-potentiated mIPSCs (area) [1, 12]: 0.70 ± 0.02 nC | Itonic (pA) ([1]; DHM 10 μM): 53.8 ± 2.9 pA | mIPSC amplitude (pA) ([1]; DHM 10 μM): 36.1 ± 2.4 pA | mIPSC area (fC) ([1]; DHM 10 μM): 965.7 ± 30.9 fC | Decay time ([1]; DHM 10 μM): 9.6 ± 0.8 ms | Frequency (HZ) ([1]; DHM 10 μM): 15.9 ± 1.0 HZ | Rise time ([1]; DHM 10 μM): 2.4 ± 0.3 ms | Itonic (pA) ([1]; DHM 30 μM): 54.0 ± 3.4 pA | mIPSC amplitude (pA) ([1]; DHM 30 μM): 35.8 ± 3.0 pA | mIPSC area (fC) ([1]; DHM 30 μM): 956.7 ± 22.6 fC | Decay time ([1]; DHM 30 μM): 10.1 ± 0.8 ms | Frequency (HZ) ([1]; DHM 30 μM): 16.1 ± 1.7 HZ | Rise time ([1]; DHM 30 μM): 2.4 ± 0.2 ms | Effect on EtOH (60 mM) potentiation of Itonic and mIPSCs ([1]; DHM 0.3 and 1.0 μM): concentration-dependently antagonized | Plasma [EtOH] [2]: significantly lower | Acute EtOH-induced LORR (tolerance) ([3]; 48 hr withdrawal after DHM 1 mg/kg i.p. alone (D/W)): 65.6 ± 8.4 min | Acute EtOH-induced LORR (tolerance) [3, 13]: 61.0 ± 3.8 min | LORR duration ([3]; DHM 1 mg/kg 30 min prior to EtOH injection (D1+E)): 8.2 ± 4.1 min | LORR duration ([3]; DHM 1 mg/kg co-injected i.p. with EtOH 4 g/kg (E4+D1)): 28.2 ± 4.0 min | LORR induction ([3]; DHM 1 mg/kg i.p. alone (D1)): did not induce LORR | LORR duration ([3]; DHM 3 mg/kg co-injected with EtOH 3 g/kg (E3+D3)): 2.7 ± 1.7 min | LORR duration ([3]; DHM 100 mg/kg i.p. alone (D100)): 2.9 ± 1.3 min | Effect on duration of EtOH-induced LORR [3, 14]: dose-dependently reduced LORR | Effect on onset of EtOH-induced LORR [3, 14]: dose-dependently increased LORR onset | LORR duration ([3]; DHM 300 mg/kg i.p. alone (D300)): 9.8 ± 4.3 min | Remaining LORR after the 30 min time point ([3]; DHM injected 30 min after EtOH): 19 ± 1.0 min | Time in open and closed arms (EPM) [4, 15]: did not affect the time rats spent in either arm | Time in open and closed arms (EPM) ([4]; 48 hr withdrawal after EtOH 3 g/kg + DHM 1 mg/kg i.p. (E+D/W), vs V/W-group): spent similar times | Decay time [5, 16]: 7.9 ± 1.2 ms | Frequency (HZ) [5, 16]: 13.2 ± 1.3 HZ | Rise time [5, 16]: 2.2 ± 0.3 ms | Decay time [5, 17]: 7.1 ± 0.6 ms | Frequency (HZ) [5, 17]: 12.4 ± 0.5 HZ | Rise time [5, 17]: 1.8 ± 0.3 ms | Itonic (pA) [5, 16]: 24.3 ± 2.9 pA | mIPSC amplitude (pA) [5, 16]: 28.5 ± 3.0 pA | mIPSC area (fC) [5, 16]: 621.5 ± 68.5 fC | Itonic (pA) [5, 17]: 30.0 ± 2.8 pA | mIPSC amplitude (pA) [5, 17]: 26.2 ± 2.1 pA | mIPSC area (fC) [5, 17]: 666.8 ± 34.1 fC | mIPSC modulation by acute EtOH ([5]; bath EtOH 60 mM, DGCs of E+D/W-group rats): mIPSC modulation was unchanged | Effect on total α4 subunit level ([6]; hippocampus 48 hr after DHM 1 mg/kg i.p. alone (D/W)): had no effect on α4 subunit level | Total α4 protein level ([6]; hippocampus 48 hr after EtOH 3 g/kg + DHM 1 mg/kg i.p. (E+D/W)): 93.0 ± 21.0 % of control | Preference to bottle containing E+D ([7]; E+D/water-group, 3rd vs 7th week): did not change this preference | EtOH intake ([7]; EtOH+DHM 0.05 mg/ml/water (E+D/water-group), beginning of the 4th week): 2.6 ± 0.5 g/kg/day | Total fluid consumption ([7]; between the 4 groups (E/water, E+D/water, D/water, water/water)): no significant differences in total fluid consumption | Body weight ([7]; between the 4 groups at the end of the experiments): no significant difference in body weight | Itonic potentiation [8, 18]: 194.9 ± 13.6 % of baseline | mIPSC area potentiation [8, 18]: 181.8 ± 9.2 % of baseline | Effect on GABA concentration-response curve of GABAAR-currents ([8]; DHM 0.3 and 1 μM co-applied with GABA, TTX present, DIV14): produced a left shift of the GABA concentration-response curve | Effect on plasma [EtOH] ([9]; DHM 10 mg/kg with EtOH 3 g/kg, significant at 30 min, not at 60 min): slightly decreased [EtOH] | Rise time of plasma [EtOH] ([9]; DHM 1, 10 mg/kg with EtOH 3 g/kg): the rise time of plasma [EtOH] was slowed at early time | Effect on EtOH-induced increase in surface GABAAR α4 ([10]; cultured neurons 24 hrs after EtOH 60 mM + DHM 0.1 μM (E+D)): prevented this increase | PTZ-induced seizure duration [11, 15]: 0.6 ± 0.4 min | PTZ-induced seizure duration [11, 13]: 1.7 ± 0.8 min

CCO [EtOH]
Itonic [1, 19]: 46.9 ± 1.4 pA and 44.8 ± 2.3 pA | mIPSCs (area) [1, 19]: 0.64 ± 0.02 nC and 0.78 ± 0.01 nC | Acute EtOH-induced LORR (tolerance) ([3]; 48 hr withdrawal after single EtOH 3 g/kg i.p. (E/W)): 10.8 ± 3.8 min | LORR duration ([3]; EtOH 3 g/kg i.p. alone (E3)): 73.6 ± 8.0 min and 69.0 ± 11.3 min | LORR onset ([3]; EtOH 3 g/kg i.p. alone (E3)): 1.8 ± 0.2 min | LORR duration ([3]; EtOH 4 g/kg i.p. alone (E4)): 112.8 ± 8.0 min | Additional LORR after the 30 min time point ([3]; EtOH, saline injected 30 min after EtOH): 42 ± 9.1 min | Time in open and closed arms (EPM) ([4]; 48 hr withdrawal after EtOH 3 g/kg i.p. (E/W), vs V/W-group): significantly shorter time in open arms and longer time in closed arms | mIPSC area before acute EtOH ([5]; DGCs of E/W-group rats (EtOH 5 g/kg gavage, 48 hr withdrawal)): 0.70 ± 0.03 nC | Decay time [5, 20]: 4.0 ± 0.4 ms | Frequency (HZ) [5, 20]: 11.4 ± 0.8 HZ | Rise time [5, 20]: 0.8 ± 0.3 ms | Itonic (pA) [5, 20]: 13.0 ± 1.0 pA | mIPSC amplitude (pA) [5, 20]: 38.3 ± 3.3 pA | mIPSC area (fC) [5, 20]: 698.0 ± 33.7 fC | mIPSC area with acute EtOH ([5]; bath EtOH 60 mM, DGCs of E/W-group rats (EtOH 5 g/kg gavage, 48 hr withdrawal)): 1.4 ± 0.04 nC | Itonic with acute EtOH [5, 21]: 62.1 ± 3.3 pA | mIPSC area with acute EtOH [5, 21]: 0.78 ± 0.05 nC | Total α4 protein level ([6]; hippocampus 48 hr after EtOH 3 g/kg i.p. (E/W), compared to V/W-group): 184.0 ± 26.0% | EtOH consumption ([7]; beginning of the 4th week): 7.4 ± 0.6 g/kg/day | EtOH consumption ([7]; end of the 2nd week): 3.9 ± 1.4 g/kg/day | Plasma [EtOH] ([9]; 30 min after EtOH 3 g/kg i.p. (E3)): 334.9 ± 37.8 mg/dL | Plasma [EtOH] ([9]; 60 min after EtOH 3 g/kg i.p. (E3)): 353.7 ± 35.4 mg/dL | Plasma [EtOH] at sampling time points (min) 5 ([9]; EtOH 4 g/kg i.p. (E4)): 365.5 ± 7.7 | Plasma [EtOH] at sampling time points (min) 30 ([9]; EtOH 4 g/kg i.p. (E4)): 379.5 ± 5.9 | Plasma [EtOH] at sampling time points (min) 60 ([9]; EtOH 4 g/kg i.p. (E4)): 372.8 ± 5.4 | Plasma [EtOH] at sampling time points (min) 90 ([9]; EtOH 4 g/kg i.p. (E4)): 361.6 ± 8.2 | Plasma [EtOH] at sampling time points (min) 180 ([9]; EtOH 4 g/kg i.p. (E4)): 324.6 ± 21.4 | Plasma [EtOH] at sampling time points (min) 0 ([9]; EtOH 4 g/kg i.p. (E4), 0 = 0 to 3 min): 143.3 ± 23.4 | Increase in surface expression of GABAAR α4 protein ([10]; cultured neurons 24 hrs after EtOH 60 mM, 30 min): 1.5 fold | PTZ-induced seizure duration ([11]; 48 hr withdrawal after EtOH 3 g/kg i.p. (E/W)): 6.5 ± 1.1 min

CCOC(=O)c1ncn2c1CN(C)C(=O)c1cc(F)ccc1-2 [flumazenil, reference compound]
Effect on EtOH-induced LORR ([3]; flumazenil 10 mg/kg co-injected with EtOH 3 g/kg (E3+F10), vs E3-group): did not alter LORR | LORR duration ([3]; flumazenil 10 mg/kg with EtOH 3 g/kg and DHM 3 mg/kg (E3+D3+F10)): 56.1 ± 4.6 min | LORR duration ([3]; flumazenil 10 mg/kg with EtOH 3 g/kg and DHM 10 mg/kg (E3+D10+F10)): 29.3 ± 4.8 min | LORR duration ([3]; flumazenil 20 mg/kg i.p. alone (F20)): 0 min | LORR duration ([3]; flumazenil 30 mg/kg with EtOH 3 g/kg and DHM 3 mg/kg (E3+D3+F30)): 58.2 ± 3.9 min | LORR duration ([3]; flumazenil 200 mg/kg i.p. alone (F200)): 0 min | LORR induction ([3]; flumazenil 20, 200 mg/kg alone): did not induce LORR | Effect on DHM (1 μM) enhancement of Itonic and mIPSCs ([8]; flumazenil (10 and 100 μM shown), cultured neurons): inhibited the DHM enhancement on GABAAR-currents in a concentration-dependent manner

O=c1c(O)c(-c2ccc(O)c(O)c2)oc2cc(O)cc(O)c12 [quercetin, reference compound]
Effect on EtOH-induced potentiation of Itonic and mIPSCs [1]: did not change EtOH-induced potentiation
